The values that follow are results of earlier work, collected in PubChem BioAssay AID1259409 (Chemical Carcinogenesis Research Information System (CCRIS), 2018).

This series concerns rodent chemically induced tumor inhibition, incidence and multiplicity. The series can be described thus: CCRIS tumor inhibitor studies. The conditions noted are these: Route [Inhibitor]: ORAL, Species: RAT.

In the case of `C[C@]12CC[C@H](O)CC1=CC[C@@H]1[C@@H]2CC[C@]2(C)C(=O)CC[C@@H]12`, the “tumour outcome (control, treated, inhibition, significance)” value runs as follows: (Carcinogen: CYPROTERONE ACETATE [427-51-0], TESTOSTERONE PROPIONATE [57-85-2], N-METHYL-N-NITROSOUREA [684-93-4], Carcinogen: CYPROTERONE ACETATE [427-51-0], TESTOSTERONE PROPIONATE [57-85-2], N-METHYL-N-NITROSOUREA [684-93-4], Dose [Inhibitor]: 1000 MG/KG IN DIET FOR 13 WK BEGINNING 1 WK PRIOR TO MNU DOSE (STUDY DURATION: 14 MONTHS), Strain/Sex: WISTAR-UNILEVER/MALE, Target Tissue: Type of Lesion: PROSTATE AND SEMINAL VESICLE: ADENOCARCINOMA OR CARCINOSARCOMA, Dose [Carcinogen]: 50 MG/KB BW CA BY GAVAGE 1X/D FOR 21 D, 100 MG/KG BW TP SC 1X/D FOR 3 D BEGINNING 1 D POST LAST CA DOSE, 50 MG/KG BW MNU, Dose [Carcinogen]: 50 MG/KB BW CA BY GAVAGE 1X/D FOR 21 D, 100 MG/KG BW TP SC 1X/D FOR 3 D BEGINNING 1 D POST LAST CA DOSE, 50 MG/KG BW MNU, Promoter: TESTOSTERONE (CRYSTALLINE)) 27/32 (84%), 27/34 (79%), 6%, not significant; (Carcinogen: CYPROTERONE ACETATE [427-51-0], TESTOSTERONE PROPIONATE [57-85-2], N-METHYL-N-NITROSOUREA [684-93-4], Carcinogen: CYPROTERONE ACETATE [427-51-0], TESTOSTERONE PROPIONATE [57-85-2], N-METHYL-N-NITROSOUREA [684-93-4], Dose [Inhibitor]: 2000 MG/KG IN DIET FOR 13 WK BEGINNING 1 WK PRIOR TO MNU DOSE (STUDY DURATION: 14 MONTHS), Strain/Sex: WISTAR-UNILEVER/MALE, Target Tissue: Type of Lesion: PROSTATE AND SEMINAL VESICLE: ADENOCARCINOMA OR CARCINOSARCOMA, Dose [Carcinogen]: 50 MG/KB BW CA BY GAVAGE 1X/D FOR 21 D, 100 MG/KG BW TP SC 1X/D FOR 3 D BEGINNING 1 D POST LAST CA DOSE, 30 MG/KG BW MNU, Dose [Carcinogen]: 50 MG/KB BW CA BY GAVAGE 1X/D FOR 21 D, 100 MG/KG BW TP SC 1X/D FOR 3 D BEGINNING 1 D POST LAST CA DOSE, 30 MG/KG BW MNU, Promoter: TESTOSTERONE (CRYSTALLINE)) 24/30 (80%), 14/29 (48%), 40%, p<0.05; (Carcinogen: CYPROTERONE ACETATE [427-51-0], TESTOSTERONE PROPIONATE [57-85-2], N-METHYL-N-NITROSOUREA [684-93-4], Carcinogen: CYPROTERONE ACETATE [427-51-0], TESTOSTERONE PROPIONATE [57-85-2], N-METHYL-N-NITROSOUREA [684-93-4], Dose [Inhibitor]: 2000 MG/KG IN DIET FOR 13 WK BEGINNING 1 WK PRIOR TO MNU DOSE (STUDY DURATION: 14 MONTHS), Strain/Sex: WISTAR-UNILEVER/MALE, Target Tissue: Type of Lesion: PROSTATE AND SEMINAL VESICLE: ADENOCARCINOMA OR CARCINOSARCOMA, Dose [Carcinogen]: 50 MG/KB BW CA BY GAVAGE 1X/D FOR 21 D, 100 MG/KG BW TP SC 1X/D FOR 3 D BEGINNING 1 D POST LAST CA DOSE, 50 MG/KG BW MNU, Dose [Carcinogen]: 50 MG/KB BW CA BY GAVAGE 1X/D FOR 21 D, 100 MG/KG BW TP SC 1X/D FOR 3 D BEGINNING 1 D POST LAST CA DOSE, 50 MG/KG BW MNU, Promoter: TESTOSTERONE (CRYSTALLINE)) 27/32 (84%), 22/32 (69%), 18%, not significant; (Carcinogen: CYPROTERONE ACETATE [427-51-0], TESTOSTERONE PROPIONATE [57-85-2], N-METHYL-N-NITROSOUREA [684-93-4], Carcinogen: CYPROTERONE ACETATE [427-51-0], TESTOSTERONE PROPIONATE [57-85-2], N-METHYL-N-NITROSOUREA [684-93-4], Dose [Inhibitor]: 2000 MG/KG IN DIET FOR 13 WK BEGINNING 20 WK POST MNU DOSE (STUDY DURATION: 14 MONTHS), Strain/Sex: WISTAR-UNILEVER/MALE, Target Tissue: Type of Lesion: PROSTATE AND SEMINAL VESICLE: ADENOCARCINOMA OR CARCINOSARCOMA, Dose [Carcinogen]: 50 MG/KB BW CA BY GAVAGE 1X/D FOR 21 D, 100 MG/KG BW TP SC 1X/D FOR 3 D BEGINNING 1 D POST LAST CA DOSE, 30 MG/KG BW MNU, Dose [Carcinogen]: 50 MG/KB BW CA BY GAVAGE 1X/D FOR 21 D, 100 MG/KG BW TP SC 1X/D FOR 3 D BEGINNING 1 D POST LAST CA DOSE, 30 MG/KG BW MNU, Promoter: TESTOSTERONE (CRYSTALLINE)) 24/30 (80%), 15/30 (50%), 38%, p<0.05; (Carcinogen: CYPROTERONE ACETATE [427-51-0], TESTOSTERONE PROPIONATE [57-85-2], N-METHYL-N-NITROSOUREA [684-93-4], Carcinogen: CYPROTERONE ACETATE [427-51-0], TESTOSTERONE PROPIONATE [57-85-2], N-METHYL-N-NITROSOUREA [684-93-4], Dose [Inhibitor]: 2000 MG/KG IN DIET FOR 13 WK BEGINNING 40WK POST MNU DOSE (STUDY DURATION: 14 MONTHS), Strain/Sex: WISTAR-UNILEVER/MALE, Target Tissue: Type of Lesion: PROSTATE AND SEMINAL VESICLE: ADENOCARCINOMA OR CARCINOSARCOMA, Dose [Carcinogen]: 50 MG/KB BW CA BY GAVAGE 1X/D FOR 21 D, 100 MG/KG BW TP SC 1X/D FOR 3 D BEGINNING 1 D POST LAST CA DOSE, 30 MG/KG BW MNU, Dose [Carcinogen]: 50 MG/KB BW CA BY GAVAGE 1X/D FOR 21 D, 100 MG/KG BW TP SC 1X/D FOR 3 D BEGINNING 1 D POST LAST CA DOSE, 30 MG/KG BW MNU, Promoter: TESTOSTERONE (CRYSTALLINE)) 24/30 (80%), 18/30 (60%), 25%, not significant; (Carcinogen: DIETHYLNITROSAMINE, 55-18-5, ACETYLAMINOFLUORENE, 53-96-3, Carcinogen: DIETHYLNITROSAMINE, 55-18-5, ACETYLAMINOFLUORENE, 53-96-3, Dose [Inhibitor]: 0, 0.6% IN DIET FOR A MAXIMUM OF 15 WK BEGINNING 15 WK POST INITIATION (STUDY DURATION: 56 WK), Strain/Sex: F344/MALE, Target Tissue: Type of Lesion: LIVER: CARCINOMA, Dose [Carcinogen]: 150 MG/KG DEN ONCE THEN 2 WK LATER 0.02% AAF IN DIET FOR 15 D WITH A PARTIAL HEPATECTOMY MIDWAY THROUGH TREATMENT, Promoter: NONE USED) 8/8 (100%), 1/4 (25%), 75%, not calculated. Moreover, the “tumour outcome (control, treated, inhibition, significance)” value (Carcinogen: DIETHYLNITROSAMINE, 55-18-5, N-METHYL-N-NITROSOUREA, 684-93-5, N-BUTYL-N-(4-HYDROXYBUTYL)NITROSAMINE, 3817-11-6, 1,2-DIM, Carcinogen: DIETHYLNITROSAMINE, 55-18-5, N-METHYL-N-NITROSOUREA, 684-93-5, N-BUTYL-N-(4-HYDROXYBUTYL)NITROSAMINE, 3817-11-6, 1,2-DIM, Dose [Inhibitor]: 0, 0.3% IN DIET FOR 23 WK BEGINNING 1 WK POST CARCINOGEN TREATMENT (STUDY DURATION: 28 WK), Strain/Sex: F344/MALE, Target Tissue: Type of Lesion: LARGE INTESTINE: ADENOMA, Dose [Carcinogen]: 100 MG/KG BW DEN ONCE, 20 MG/KG BW MNU ONCE ON DAYS 6,9, AND 12, 0.05% BBN IN DRINKING WATER FOR FIRST TWO WK, 40 MG/KG, Dose [Carcinogen]: 100 MG/KG BW DEN ONCE, 20 MG/KG BW MNU ONCE ON DAYS 6,9, AND 12, 0.05% BBN IN DRINKING WATER FOR FIRST TWO WK, 40 MG/KG, Promoter: NONE USED) is reported as 3/20 (15%), 4/20 (20%), -33%, not significant.
